Data on one compound can be found in patent US8871251B2, “Liposome and method for producing the same” (Can Heal BioMediTech Corp., priority 2008, dated 2014).

Common to all, as to experiment: MTT assay, curcumin concentration killing 50% of cells
Common to all, as to format: cell-based
On the technique in general: Tetrazolium assays rely on reduction of a dye to a coloured formazan, in cell work by metabolically active cells.

One assay has as its system A549. The following applies: A549, human lung carcinoma; mean±SD (n=6); read-out: curcumin concentration required for killing 50% of the cells. Here is the method: (§1) In this experiment, whether the liposome has the capability of carrying drugs is observed by MTT assay. First, curcumin was added into cells at different concentrations, to obtain the curcumin concentration required for killing 50% of the cells. Next, the liposome with curcumin at different concentrations (curcumin-liposome) was sent into cells of the same type respectively, to obtain the curcumin concentration required for killing 50% of the cells. In Table 1, all the concentrations are expressed as mean±standard deviation (SD) (n=6).

In a further assay the test system is B16/F10. The following applies: B16/F10, mouse melanoma; mean±SD (n=6); read-out: curcumin concentration required for killing 50% of the cells. The protocol: as §1
The subject of a further assay is CT-26. The following applies: CT26; CT-26, mouse colorectal adenocarcinoma; mean±SD (n=6); read-out: curcumin concentration required for killing 50% of the cells. The protocol:
as §1

The test system of the next assay is HT-29. The following applies: HT-29, human colorectal adenocarcinoma; mean±SD (n=6); read-out: curcumin concentration required for killing 50% of the cells. The protocol: as §1
For the next assay, the system named is HeLa. The following applies: human cervical cancer, mean±SD (n=6), read-out: curcumin concentration required for killing 50% of the cells. The protocol: as §1
For a further assay, the system named is HepG2. The following applies: HepG2, human hepatocellular carcinoma; mean±SD (n=6); read-out: curcumin concentration required for killing 50% of the cells. The protocol: as §1
The next assay deals with JC. The following applies: mouse breast adenocarcinoma, mean±SD (n=6), read-out: curcumin concentration required for killing 50% of the cells. The protocol:
as §1

Another assay has as its system LL-2. The following applies: LL-2, mouse lung carcinoma; mean±SD (n=6); read-out: curcumin concentration required for killing 50% of the cells. Here is the method: as §1

With `COc1cc(/C=C/C(=O)CC(=O)/C=C/c2ccc(O)c(OC)c2)ccc1O` [Curcumin, curcumin], the IC50 in the assay on A549 came out at 30 ± 9.45 µM; in the assay on B16/F10 it was 8.16 ± 1.01 µM; in the assay on CT-26 it was 7.92 ± 0.77 µM; in the assay on HT-29, 12.9 ± 1.18 µM; in the assay on HeLa it was 17.7 ± 6.95 µM; in the assay with HepG2 it was 12.2 ± 1.11 µM. For the same compound, the figures for the IC50 with JC and in the assay with LL-2 were 11 ± 1.47 µM and 10.8 ± 2.33 µM, respectively.
